Patent US20160193291A1, “METHOD OF REGULATING NEURONAL AXON ELONGATION” (RIKEN, priority 2012, published 2016)

Key:
Assay type in all cases: cell-based, chick (Gallus gallus)
[1] = tested on: growth cones of primary culture DRG neurons; experiment: Endocytosis of Alexa Fluor dextran (macropinocytosis) in growth cones
[2] = tested on: growth cones of DRG neurons; experiment: Growth cone collapse assay (growth cone surface area)
Protocol: Dissociated DRG neurons from embryonic day 7-9 chicks were cultured for at least 12 h in an F-12 medium (Invitrogen) containing 50 ng/ml NGF. […] Subsequently, the culture medium was changed to BSS buffer. […] In experiments using epoxomicin, the cells were treated with […] epoxomicin for 15 min before the addition of […] Sema3A.
The growth cone area was defined as a hand-like region extending from a distal part of a neurite to a growth cone neck whose width is equal to the width of the neurite. The width of each neurite was calculated by measuring the width of the neurite region at a location that was 30 μm apart from the distal part of each neurite. This calculation was adopted because the mean length of the control growth cone was less than 30 μm.

[3] = tested on: DRG neurons; experiment: Neurite elongation (neurite length) of transfected DRG neurons; conditions: 15 min pretreatment with 10 μM EIPA
[4] = tested on: Syx1B protein in growth cones; experiment: Immunocytochemistry of Syx1B protein in growth cones; conditions: for protein level of Syx1B normalized to that of SNAP25 in the growth cones: 10 min treatment
Protocol: After Sema3A or vehicle treatment, the cells were fixed with 4% PFA for 1 h at 37° C., followed by permeabilization with 0.3% Triton X-100 in PBS for 2 min at a room temperature.
The cells were then immediately washed three times with a blocking solution (1% BSA and 0.1% Triton X-100 PBS), followed by incubation with the blocking solution for 1 h at a room temperature, and were then incubated in the presence of anti-Syx1B (0.5 μg/ml) and anti-synaptosomal-associated protein 25 (SNAP25) antibody (1:500 dilution, clone SM-81; Sternberger Monpclonals) for 2 h at a room temperature. Immunofluorescence signals were visualized by incubation with Alexa Fluor 488-labeled donkey anti-rabbit antibody (Invitrogen) and Alexa Fluor 594-labeled donkey anti-mouse antibody (Invitrogen). The integrated fluorescence intensity of Syx1B in the growth cones was normalized to that of the SNAP 25 protein.

[5] = 15 min pretreatment with 10 μM EIPA
[6] = 15 min pretreatment with 100 μM EIPA

Q: For CCN(c1nc(N)c(C(=O)N=C(N)N)nc1Cl)C(C)C [EIPA, 5-(N-ethyl-N-isopropyl)amiloride], which “effect on Sema3A-induced uptake of Alexa Flour 594-dextran” value [1, 5] is on record?
A: The value was “suppressed”.

Q: What about the “effect on Syx1B knockdown-mediated accumulation of Alexa Fluor 594-dextran” value [1, 5] of the same molecule?
A: Its value is “reversed”.

Q: And the “effect on neurotoxin C1-induced uptake of Alexa Fluor 594-dextran” value [1, 6]?
A: The value was “blocked”.

Q: And the “effect on Sema3A-induced growth cone collapse” value [2, 5]?
A: Its value is “suppressed”.

Q: And the “effect on Syx1B knockdown-mediated growth cone collapse” value [2, 5]?
A: Its value is “reversed”.

Q: What about the “effect on neurotoxin C1-induced reduction in growth cone surface area” value [2, 6] of the same molecule?
A: The value was “blocked”.

Q: And the “effect on Syx1B knockdown-mediated reduced neurite elongation” value [3]?
A: Its value is “reversed”.

Q: Which “macropinocytosis in the growth cones” value ([1]; 10 min LY294002 treatment) does the source give for O=c1cc(N2CCOCC2)oc2c(-c3ccccc3)cccc12 [LY294002, 2-(4-morpholinyl)-8-phenyl-1 (4H)-benzopyran-4-one] here?
A: Its value is “induced macropinocytosis”.

Q: And the growth cone area ([2]; 10 min LY294002 treatment)?
A: The growth cone area was “induced reduction in growth cone area”.

Q: And the “protein level of Syx1B normalized to that of SNAP25 in the growth cones” value [4]?
A: Its value is “significantly reduced”.

Q: CC[C@H](C)[C@H](NC(=O)[C@H]([C@@H](C)CC)N(C)C(C)=O)C(=O)N[C@H](C(=O)N[C@@H](CC(C)C)C(=O)[C@@]1(C)CO1)[C@@H](C)O [epoxomicin] was tested. Which “effect on Sema3A-induced suppression of Syx1B” value ([4]; 1 μM epoxomicin) did it give?
A: Its value is “suppressed”.

Q: How did the growth cone morphology [2] turn out when C/C1=C\[C@H](C)C[C@H](C)OC(=O)C[C@H](c2ccc(O)cc2)NC(=O)[C@@H](Cc2c(Br)[nH]c3ccccc23)N(C)C(=O)[C@H](C)NC(=O)[C@@H](C)C1 [jasplakinolide] was run?
A: The growth cone morphology was “induces growth cone collapse-like morphological changes”.

Q: What about the “protein level of Syx1B normalized to that of SNAP25 in the growth cones” value [4] of the same molecule?
A: The value was “not decreased”.
